Columns and labels:
Plasmodium falciparum [1] = test: Antiplasmodial activity against chloroquine-sensitive Plasmodium falciparum 3D7 assessed as inhibition of parasite growth incubated for 48 hrs by SYBR green 1 dye based fluorescence assay; type: functional, organism-based
Plasmodium falciparum [2] = test: Antiplasmodial activity against chloroquine-resistant Plasmodium falciparum W2 assessed as inhibition of parasite growth incubated for 48 hrs by SYBR green 1 dye based fluorescence assay; type: functional, organism-based
HEK293 [3] = test: Cytotoxicity against human HEK293 cells assessed as reduction in cell viability up to 500 ug/L incubated for 24 hrs by MTT assay; type: cell-based; conditions: hek293, 24 h
HEK293 [4] = test: Cytotoxicity against human HEK293 cells assessed as reduction in cell viability at 50,000 ug/L incubated for 24 hrs by MTT assay; type: cell-based; conditions: hek293, 24 h
[5] = Plasmodium falciparum, 3D7, 48 h
[6] = Plasmodium falciparum, W2, 48 h

Structure (SMILES)	IC50 (Plasmodium falciparum [1]; [5]) [µM]	IC50 (Plasmodium falciparum [2]; [6]) [µM]	IC50 (Plasmodium falciparum [1]) [µM]	IC50 (Plasmodium falciparum [2]) [µM]	Activity (HEK293 [3])	Activity (HEK293 [4])
CC(=O)OC[C@H]1O[C@@H](OCCCn2cc(COCCOCc3cn(CCCO[C@@H]4O[C@H](COC(C)=O)[C@@H](O)[C@H](O)[C@H]4O[C@@H]4O[C@@H](C)[C@H](OC(C)=O)[C@@H](OC(C)=O)[C@H]4OC(C)=O)nn3)nn2)[C@H](O[C@@H]2O[C@@H](C)[C@H](OC(C)=O)[C@@H](OC(C)=O)[C@H]2OC(C)=O)[C@@H](O)[C@@H]1O	41.6	37.1	–	–	–	–
CO[C@@H]1O[C@H](COC(C)=O)[C@@H](O)[C@H](O)[C@H]1O[C@@H]1O[C@@H](C)[C@H](OC(C)=O)[C@@H](OC(C)=O)[C@H]1OC(C)=O	143	100	–	–	–	–
CC(=O)OC[C@H]1O[C@@H](OCCCn2cc(COC[C@H]3O[C@@H](O[C@H]4[C@H](OCc5cn(CCCO[C@@H]6O[C@H](COC(C)=O)[C@@H](O)[C@H](O)[C@H]6O[C@@H]6O[C@@H](C)[C@H](OC(C)=O)[C@@H](OC(C)=O)[C@H]6OC(C)=O)nn5)[C@@H](OCc5cnnn5CCCO[C@@H]5O[C@H](COC(C)=O)[C@@H](O)[C@H](O)[C@H]5O[C@@H]5O[C@@H](C)[C@H](OC(C)=O)[C@@H](OC(C)=O)[C@H]5OC(C)=O)[C@H](OCc5cn(CCCO[C@@H]6O[C@H](COC(C)=O)[C@@H](O)[C@H](O)[C@H]6O[C@@H]6O[C@@H](C)[C@H](OC(C)=O)[C@@H](OC(C)=O)[C@H]6OC(C)=O)nn5)O[C@@H]4COCc4cn(CCCO[C@@H]5O[C@H](COC(C)=O)[C@@H](O)[C@H](O)[C@H]5O[C@@H]5O[C@@H](C)[C@H](OC(C)=O)[C@@H](OC(C)=O)[C@H]5OC(C)=O)nn4)[C@H](OCc4cnnn4CCCO[C@@H]4O[C@H](COC(C)=O)[C@@H](O)[C@H](O)[C@H]4O[C@@H]4O[C@@H](C)[C@H](OC(C)=O)[C@@H](OC(C)=O)[C@H]4OC(C)=O)[C@@H](OCc4cn(CCCO[C@@H]5O[C@H](COC(C)=O)[C@@H](O)[C@H](O)[C@H]5O[C@@H]5O[C@@H](C)[C@H](OC(C)=O)[C@@H](OC(C)=O)[C@H]5OC(C)=O)nn4)[C@H]3OCc3cnnn3CCCO[C@@H]3O[C@H](COC(C)=O)[C@@H](O)[C@H](O)[C@H]3O[C@@H]3O[C@@H](C)[C@H](OC(C)=O)[C@@H](OC(C)=O)[C@H]3OC(C)=O)nn2)[C@H](O[C@@H]2O[C@@H](C)[C@H](OC(C)=O)[C@@H](OC(C)=O)[C@H]2OC(C)=O)[C@@H](O)[C@@H]1O	–	–	28.4	12.6	–	–
CCN(CC)CCCC(C)Nc1ccnc2cc(Cl)ccc12 (configuration not stated) [CHLOROQUINE]	–	–	–	–	Non-Toxic	Toxic
CC(=O)OC[C@H]1O[C@@H](OCCCN=[N+]=[N-])[C@H](O[C@@H]2O[C@@H](C)[C@H](OC(C)=O)[C@@H](OC(C)=O)[C@H]2OC(C)=O)[C@@H](O)[C@@H]1O	58.7	41.9	–	–	Non-Toxic	Non-Toxic
CC(=O)OC[C@H]1O[C@@H](OCCCn2cc(COC[C@H]3O[C@@H](OCc4cn(CCCO[C@@H]5O[C@H](COC(C)=O)[C@@H](O)[C@H](O)[C@H]5O[C@@H]5O[C@@H](C)[C@H](OC(C)=O)[C@@H](OC(C)=O)[C@H]5OC(C)=O)nn4)[C@H](OCc4cnnn4CCCO[C@@H]4O[C@H](COC(C)=O)[C@@H](O)[C@H](O)[C@H]4O[C@@H]4O[C@@H](C)[C@H](OC(C)=O)[C@@H](OC(C)=O)[C@H]4OC(C)=O)[C@@H](OCc4cn(CCCO[C@@H]5O[C@H](COC(C)=O)[C@@H](O)[C@H](O)[C@H]5O[C@@H]5O[C@@H](C)[C@H](OC(C)=O)[C@@H](OC(C)=O)[C@H]5OC(C)=O)nn4)[C@H]3OCc3cn(CCCO[C@@H]4O[C@H](COC(C)=O)[C@@H](O)[C@H](O)[C@H]4O[C@@H]4O[C@@H](C)[C@H](OC(C)=O)[C@@H](OC(C)=O)[C@H]4OC(C)=O)nn3)nn2)[C@H](O[C@@H]2O[C@@H](C)[C@H](OC(C)=O)[C@@H](OC(C)=O)[C@H]2OC(C)=O)[C@@H](O)[C@@H]1O	13	21.9	–	–	–	–
CCCCCCCCCCCCCCCCO[C@@H]1O[C@H](COC(C)=O)[C@@H](O)[C@H](O)[C@H]1O[C@@H]1O[C@@H](C)[C@H](OC(C)=O)[C@@H](OC(C)=O)[C@H]1OC(C)=O	24.6	17.3	–	–	Non-Toxic	Toxic
CC(=O)OC[C@H]1O[C@@H](OCCCn2cc(COc3cc(OCc4cnnn4CCCO[C@@H]4O[C@H](COC(C)=O)[C@@H](O)[C@H](O)[C@H]4O[C@@H]4O[C@@H](C)[C@H](OC(C)=O)[C@@H](OC(C)=O)[C@H]4OC(C)=O)cc(OCc4cnnn4CCCO[C@@H]4O[C@H](COC(C)=O)[C@@H](O)[C@H](O)[C@H]4O[C@@H]4O[C@@H](C)[C@H](OC(C)=O)[C@@H](OC(C)=O)[C@H]4OC(C)=O)c3)nn2)[C@H](O[C@@H]2O[C@@H](C)[C@H](OC(C)=O)[C@@H](OC(C)=O)[C@H]2OC(C)=O)[C@@H](O)[C@@H]1O	41.1	23.6	–	–	–	–
CC(=O)OC[C@H]1O[C@@H](OCCCn2cc(COCC(COCc3cn(CCCO[C@@H]4O[C@H](COC(C)=O)[C@@H](O)[C@H](O)[C@H]4O[C@@H]4O[C@@H](C)[C@H](OC(C)=O)[C@@H](OC(C)=O)[C@H]4OC(C)=O)nn3)(COCc3cn(CCCO[C@@H]4O[C@H](COC(C)=O)[C@@H](O)[C@H](O)[C@H]4O[C@@H]4O[C@@H](C)[C@H](OC(C)=O)[C@@H](OC(C)=O)[C@H]4OC(C)=O)nn3)COCc3cn(CCCO[C@@H]4O[C@H](COC(C)=O)[C@@H](O)[C@H](O)[C@H]4O[C@@H]4O[C@@H](C)[C@H](OC(C)=O)[C@@H](OC(C)=O)[C@H]4OC(C)=O)nn3)nn2)[C@H](O[C@@H]2O[C@@H](C)[C@H](OC(C)=O)[C@@H](OC(C)=O)[C@H]2OC(C)=O)[C@@H](O)[C@@H]1O	28.1	25.2	–	–	–	–

From ChEMBL document CHEMBL4715746, “Polyvalent effect enhances diglycosidic antiplasmodial activity” (Eur J Med Chem, 2016)
